{
  "source": "paper PMC8068036",
  "about": "“Synthesis of New Biscoumarin Derivatives, In Vitro Cholinesterase Inhibition, Molecular Modelling and Antiproliferative Effect in A549 Human Lung Carcinoma Cells” (International Journal of Molecular Sciences, 2021)",
  "key": {"A549 cells [1]": {"system": "A549 cells", "assay": "Quantification of cell number and viability (eosin staining)", "type": "cell-based, human", "conditions": "35 and 65 μM, 24 h, eosin negative cells", "protocol": "For the assessment of total cell numbers and viability within individual experimental groups, floating and adherent cells were harvested after treatment with the studied derivatives and evaluated using a Bürker chamber with eosin staining. A549 cells were plated at a density of 135 × 10^3 cell/well into a 6-well plate and treated with different concentrations of derivatives (35 and 65 µM) for 24 hrs. The total cell number was expressed as a percentage of the total cell number of the untreated control. Viability was expressed as a percentage of viable, eosin negative cells. The results are presented as the average percentage of cells from three independent experiments."}, "A549 cells [2]": {"system": "A549 cells", "assay": "Mitotic activity (Ki67 index) by immunolabelling and confocal microscopy", "type": "cell-based, human", "conditions": "24 h, control 90.6 ± 5.7%", "protocol": "The studied biscoumarin derivatives were added to cells seeded on 12-well μ-Chamber slides for 24 h. After cultivation with the derivatives, the samples (both the control without the derivatives and experimental groups) were washed with a 0.1 M PBS solution buffer to remove all non-cell-absorbed derivative residues and fixed with 4% paraformaldehyde for 20 min at RT. Alternatively, cells were incubated with Mitotracker Red (0.5 µM; Thermo Fisher Scientific, Waltham, MA, USA) for 30 min at 37 °C, washed with 0.1 M PBS, and fixed with 4% paraformaldehyde for 20 min at RT. For the quantification of proliferative activity and programmed cell death, samples were incubated overnight at 4 °C with the mouse anti-Ki67 antibody (NCL-L-Ki67-MM1, 1:100, Leica Biosystems, Wetzlar, Germany) and rabbit anti-cleaved PARP (cat. no. 94885, 1:100, Cell Signaling, Danvers, MA, USA) diluted in 0.1 M PBS containing 1% normal donkey serum (Jackson Immunoresearch, Cambridgeshire, Great Britain) and 0.3% Triton-X 100. […]\nAll samples were evaluated using a Leica TCS SP5X confocal system (Leica Microsystems, Mannheim, Germany). The biscoumarin derivatives were visualized in cells using a 405 nm laser, and the fluorescence was captured in the range of 420–480 nm with identical exposure parameters for all samples. […] Microphotographs were taken with a 40× objective lens (NA = 0.75; voxel size 223 × 223 nm) and a 63× oil lens (NA = 1.4; voxel size 171 × 171 nm); the images were captured and analyzed using LAS AF software (Leica Microsystems, Wetzlar, Germany).\nThe proliferative activity of cells incubated with the studied derivatives was expressed as a Ki67 index. In all samples (n = 3 samples per each experimental group), the number of Ki67^+ nuclei was calculated in groups of 100 randomly selected cells. […]"}},
  "data": [
    {"smiles": "COC(=O)Cc1cc(=O)oc2cc(OCCCCCCCCN3CCN(CCNC(=O)Cc4cc(=O)oc5cc(O)ccc45)CC3)ccc12", "note": "[12e, Methyl 2-[7-({2-[4-(2-{[2-(7-hydroxy-2-oxo-2H-4-chromenyl)acetyl]amino}etyl)piperazino]oktyl}oxy)-2-oxo-2H-4-chromenyl]acetate]", "values": [
      {"measurement": "Cell viability of A549 (in words)", "setting": "A549 cells [1]", "result": "reduced cell viability at a concentration of 65 μM"},
      {"measurement": "Number of proliferating cells (Ki67 index)", "setting": "A549 cells [2]; 35 µM", "result": "59.4 ± 2.6", "unit": "%"},
      {"measurement": "Number of proliferating cells (Ki67 index)", "setting": "A549 cells [2]; 65 µM", "result": "16.5 ± 12.9", "unit": "%"}
    ]}
  ]
}
